Reference: article PMC10409515, “Enzymatic properties of alcohol dehydrogenase PedE_M.s. derived from Methylopila sp. M107 and its broad metal selectivity” (Frontiers in Microbiology, 2023)

System: T1, PedE_M.s.
T1 construct: gene pedE; C-terminal 8xHis tag; codon-optimised gene expressed in Methylorubrum extorquens AM1 (quadruple mutant) with Ca2+; Ni-NTA purified; signal peptide not discussed
Assay: PMS-mediated DCPIP reduction at […] nm; Michaelis-Menten fit
Assay type: biochemical
Details: PMS 1 mM, DCPIP 150 uM, 45 mM NH4Cl, 100 mM Tris-HCl pH 9.0; optimal conditions (30 °C optimum; general assay text says about 26 °C); Ca2+-PQQ enzyme; read-out: Methylopila sp. M107 / Km

Km [µM] | SMILES
79 ± 14 | CCCCCCO [Hexanol]
39 ± 15 | CCCCO [Butanol]
49 ± 14 | CCCCCO [Pentanol]
25 ± 6 | CCCO [Propanol]
35 ± 12 | CC(C)O [Isopropanol]
28 ± 6 | CCO [Ethanol]

SMILES | Km [µM]
CO [Methanol] | 25 ± 6
C=O [Formaldehyde] | 39 ± 21
